Results published in PubChem BioAssay (NCI).
Where “and” joins values, the source holds several entries; their conditions need not be identical. Identical values can stand only once.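 Briefly, cells in 96-well plates were exposed to five compound concentrations for 48 h, and endpoints were estimated by linear interpolation. Here, GI50 denotes the concentration required for 50% inhibition of growth. TGI: concentration producing complete growth inhibition.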

What follows are compounds tested on RPMI-8226 leukemia (assay: NCI tumour cell line growth inhibition, 48 h).
O=[N+]([O-])c1cc([N+](=O)[O-])c(C(F)(F)F)cc1NN=C(c1ccc(O)cc1)c1ccc(O)cc1 gave a GI50 of 3.71 µM and a TGI of 12.6 µM. In the case of c1ccc(Nc2ncc(-c3ccccc3)o2)cc1, the GI50 is reported as > 25 µM and the TGI is reported as > 25 µM. With COc1c2ccccc2c(OC)c2[nH]c(=O)ccc12 the GI50 was 12.6 µM and the TGI was > 100 µM. With O=C(O)C(Cl)Cl the GI50 was 3210 µM and > 9400 µM and the TGI was > 10000 µM. For NC(=S)N/N=C\c1nccc2c(C(F)(F)F)cccc12, the GI50 was 0.376 µM and the TGI was 14.9 µM. CC(=O)N[C@@H](Cc1ccc(OP(=O)(O)O)cc1)C(=O)N[C@H]1CCC(=O)N2CCC[C@@H](C(=O)Nc3cccc4ccccc34)N2C1=O was tested, and the GI50 was > 25 µM and the TGI was > 25 µM. CN1CCN(c2ccc(Nc3ncc(Cl)c(NC[C@@H]4CCCO4)n3)cc2)CC1 showed a GI50 of 1.48 µM and a TGI of 5.63 µM.

The compounds below were run on UACC-257 melanoma (assay: NCI tumour cell line growth inhibition, 48 h).
In the case of Nc1nc2[nH]cc(CCc3ccc(C(=O)N[C@@H](CCC(=O)O)C(=O)O)cc3)c2c(=O)[nH]1, the TGI is reported as > 100 µM. For COC1=CC(=O)C(C2(OC(C)C)OC(=O)C(Cl)=C2Cl)=CC1=O (configuration not stated), the TGI was > 100 µM. CN1CCN(C(=O)COc2ccc(C34CC5CC(CC(C5)C3)C4)cc2)CC1 was tested, and the GI50 was 12.8 µM and the TGI was 31.9 µM. For COc1ccccc1NC(=O)c1cc2cc(Br)ccc2cc1O, the GI50 was 1.97 µM and the TGI was 5.3 µM. O=C(Nc1nn2c(-c3cc(C(F)(F)F)cc(C(F)(F)F)c3)nnc2s1)C1CCCC1 was tested, and the GI50 was 0.419 µM and the TGI was 3.49 µM. COC(=O)[C@]12CC[C@@H](C)[C@H](C)[C@@H]1C1=CC[C@@H]3[C@@]4(C)C[C@@H](O)[C@H](O)[C@@](C)(CO)[C@@H]4[C@H](O)C[C@@]3(C)[C@]1(C)CC2 gave a GI50 of 16.8 µM and a TGI of 35.8 µM. Work on COCCn1cc(-c2nc(-c3cc4cccnc4[nH]3)cs2)c2cc(OC)ccc21 yielded a GI50 of 4.26 µM and a TGI of 9.81 µM. Work on O=[N+]([O-])c1cc([N+](=O)[O-])c(C(F)(F)F)cc1NN=C(c1ccc(O)cc1)c1ccc(O)cc1 yielded a GI50 of 4.29 µM and a TGI of 17.5 µM. With c1ccc(Nc2ncc(-c3ccccc3)o2)cc1 the GI50 was > 25 µM and the TGI was > 25 µM. Compound COc1c2ccccc2c(OC)c2[nH]c(=O)ccc12 has a GI50 of 2.5 µM and a TGI of 6.39 µM. In the case of O=C(O)C(Cl)Cl, the GI50 is reported as > 10000 µM and the TGI is reported as > 10000 µM. NC(=S)N/N=C\c1nccc2c(C(F)(F)F)cccc12 showed a GI50 of 0.29 µM and a TGI of 0.94 µM. For CC(=O)N[C@@H](Cc1ccc(OP(=O)(O)O)cc1)C(=O)N[C@H]1CCC(=O)N2CCC[C@@H](C(=O)Nc3cccc4ccccc34)N2C1=O, the GI50 was > 25 µM and the TGI was > 25 µM. For CN1CCN(c2ccc(Nc3ncc(Cl)c(NC[C@@H]4CCCO4)n3)cc2)CC1, the GI50 was 6.46 µM and the TGI was 32.6 µM.

What follows are compounds tested on PC-3 prostate (assay: NCI tumour cell line growth inhibition, 48 h).
For Nc1nc2[nH]cc(CCc3ccc(C(=O)N[C@@H](CCC(=O)O)C(=O)O)cc3)c2c(=O)[nH]1, the GI50 was > 51.9 µM and the TGI was > 100 µM. COC1=CC(=O)C(C2(OC(C)C)OC(=O)C(Cl)=C2Cl)=CC1=O (configuration not stated) was tested, and the TGI was > 100 µM. Work on CN1CCN(C(=O)COc2ccc(C34CC5CC(CC(C5)C3)C4)cc2)CC1 yielded a GI50 of 4.87 µM and a TGI of 21.6 µM. In the case of COc1ccccc1NC(=O)c1cc2cc(Br)ccc2cc1O, the GI50 is reported as 1.83 µM and the TGI is reported as 6.79 µM. With O=C(Nc1nn2c(-c3cc(C(F)(F)F)cc(C(F)(F)F)c3)nnc2s1)C1CCCC1 the GI50 was 0.603 µM and the TGI was > 100 µM. In the case of COC(=O)[C@]12CC[C@@H](C)[C@H](C)[C@@H]1C1=CC[C@@H]3[C@@]4(C)C[C@@H](O)[C@H](O)[C@@](C)(CO)[C@@H]4[C@H](O)C[C@@]3(C)[C@]1(C)CC2, the GI50 is reported as 3.63 µM and the TGI is reported as 15.6 µM. COCCn1cc(-c2nc(-c3cc4cccnc4[nH]3)cs2)c2cc(OC)ccc21 gave a GI50 of 3.13 µM and a TGI of 13.3 µM. In the case of O=[N+]([O-])c1cc([N+](=O)[O-])c(C(F)(F)F)cc1NN=C(c1ccc(O)cc1)c1ccc(O)cc1, the GI50 is reported as 3.11 µM and the TGI is reported as 78 µM. In the case of c1ccc(Nc2ncc(-c3ccccc3)o2)cc1, the GI50 is reported as > 23.2 µM and the TGI is reported as > 25 µM. For COc1c2ccccc2c(OC)c2[nH]c(=O)ccc12, the GI50 was 5.53 µM and the TGI was > 43.7 µM. O=C(O)C(Cl)Cl was tested, and the GI50 was > 10000 µM and the TGI was > 10000 µM. Compound NC(=S)N/N=C\c1nccc2c(C(F)(F)F)cccc12 has a GI50 of 0.351 µM and a TGI of 15.2 µM. In the case of CC(=O)N[C@@H](Cc1ccc(OP(=O)(O)O)cc1)C(=O)N[C@H]1CCC(=O)N2CCC[C@@H](C(=O)Nc3cccc4ccccc34)N2C1=O, the GI50 is reported as > 25 µM and the TGI is reported as > 25 µM. In the case of CN1CCN(c2ccc(Nc3ncc(Cl)c(NC[C@@H]4CCCO4)n3)cc2)CC1, the GI50 is reported as 2.24 µM and the TGI is reported as > 100 µM.
